Measured values from patent publication US10633407B2, “14-membered ketolides and methods of their preparation and use” (President and Fellows of Harvard College, priority 2014, dated 2020).
Values after ≈ are worked out from the molar mass of the structure shown. Like-named read-outs stand apart in the source and are kept apart here.

Columns and labels:
Experiment in all cases: CLSI broth dilution MIC determination
Assay type in all cases: cell-based
P. aeruginosa ATCC 27853 = P. aeruginosa ATCC 27853 (MP-3)
P. aeruginosa MP-7 PAO1 = tested on: P. aeruginosa MP-7 PAO1
A. baumannii ATCC 19606 = A. baumannii ATCC 19606 (MP-15)
[1] = tested on: A. baumannii MP-577 Clinical-AZT low
[2] = tested on: P. aeruginosa MP-8 PAO1:mex (mex-oprM-deletion)
[3] = tested on: A. baumannii MP-576 Clinical-MDR
[4] = tested on: K. pneumoniae MP-546 Clinical-MDR
[5] = tested on: K. pneumoniae MP-548 clinical
[6] = tested on: E. coli MP-532 clinical-cErmB
Text: (§1) MIC data was collected for the novel macrolides that this platform has produced against over 21 unique strains of B. subtilis, E. coli, S. aureus, S. pneumoniae, and H. influenzae, including several multidrug-resistant strains, with a special focus on macrolide resistant mechanisms (vide supra). Azithromycin (Azithro) and Solithromycin (Solithro) were included as a control macrolides in many cases. CLSI standard procedures for broth dilution MIC determination were used. […] These genotypes can be constitutive or inducible.

[7] = tested on: S. aureus (MRSA) MP-513 ST-228 cErm (Clinical-cErm)
Text: as §1

[8] = tested on: E. coli MP-9 ATCC25922:tolC
Text: as §1

S. aureus ATCC 29213 = S. aureus ATCC 29213 (MP-12)
Text: as §1

S. aureus MRSA: USA300 = S. aureus MRSA: USA300 (MP-549, msr(a))
Text: as §1

[9] = tested on: S. aureus MP-17 ATCCBAA-977 (BAA 977 iErm); conditions: S. aureus MP-17, ATCCBAA-977, iErm
Text: as §1

E. coli MP-541 clinical = tested on: E. coli MP-541 clinical
Text: as §1

E. coli ATCC 25922 = tested on: E. coli ATCC 25922
Text: as §1

K. pneumoniae ATCC 10031 = tested on: K. pneumoniae ATCC 10031
[10] = Pseudomonas aeruginosa, ATCC27853, read-out: MIC
[11] = Pseudomonas aeruginosa, read-out: MIC
[12] = Acinetobacter baumannii, ATCC19606, read-out: MIC
[13] = Acinetobacter baumannii, read-out: MIC
[14] = Klebsiella pneumoniae, read-out: MIC
[15] = Klebsiella pneumoniae, MP548CLINICAL, read-out: MIC
[16] = Staphylococcus aureus, read-out: MIC
[17] = Staphylococcus aureus, ATCC29213, read-out: MIC
[18] = Escherichia coli, MP541CLINICAL, read-out: MIC
[19] = Escherichia coli, ATCC25922, E. coli ATCC 25922 (MP-4), read-out: MIC
[20] = Klebsiella pneumoniae, ATCC10031, K. pneumoniae ATCC 10031 (MP-14), read-out: MIC
[21] = P. aeruginosa MP-8, PAO1:mex, mex-oprM-deletion
[22] = K. pneumoniae ATCC 10031 (MP-14)

Compound	MIC (P. aeruginosa ATCC 27853; [10]) [µg/mL]	MIC (P. aeruginosa MP-7 PAO1; [11]) [µg/mL]	MIC (A. baumannii ATCC 19606; [12]) [µg/mL]	MIC [1, 13] [µg/mL]	MIC ([2]; Pseudomonas aeruginosa, PAO1) [µg/mL]	MIC [3, 13] [µg/mL]	MIC [4, 14] [µg/mL]	MIC [5, 15] [µg/mL]	MIC ([6]; Escherichia coli) [µg/mL]	MIC [7, 16] [µg/mL]	MIC ([8]; Escherichia coli, ATCC25922) [µg/mL]	MIC (S. aureus ATCC 29213; [17]) [µg/mL]	MIC (S. aureus MRSA: USA300; [16]) [µg/mL]	MIC [9, 16] [µg/mL]	MIC (E. coli MP-541 clinical; [18]) [µg/mL]	MIC (E. coli ATCC 25922; [19]) [µg/mL]	MIC (K. pneumoniae ATCC 10031; [20]) [µg/mL]	MIC (P. aeruginosa ATCC 27853) [µg/mL]	MIC (P. aeruginosa MP-7 PAO1) [µg/mL]	MIC (A. baumannii ATCC 19606) [µg/mL]	other results
CC[C@H]1OC(=O)[C@@](C)(F)C(=O)[C@H](C)[C@@H](O[C@@H]2OC(C)CC(N(C)C)C2O)[C@](C)(OC)C[C@@H](C)C(=O)[C@H](C)[C@H]2N(CC#CCn3cc(-c4cnccn4)nn3)C(=O)O[C@]12C (stereo partly drawn) [FSM-22746]	> 64	> 64	16 (≈ 19.3 µM)	64 (≈ 77.3 µM)	16 (≈ 19.3 µM)	> 64	> 64	> 64	> 64	> 64	4 (≈ 4.83 µM)	0.25 (≈ 0.302 µM)	0.5 (≈ 0.604 µM)	0.25 (≈ 0.302 µM)	64 (≈ 77.3 µM)	32 (≈ 38.6 µM)	8 (≈ 9.66 µM)	–	–	–	–
CCC1OC(=O)C(C)(F)C(=O)C(C)C(OC2OC(C)CC(N(C)C)C2O)C(C)(OC)CC(C)C(=O)C(C)C2N(CC=C=Cn3cc(-c4cnccn4)nn3)C(=O)OC12C (stereo not drawn) [FSM-22740]	–	–	–	–	–	–	–	–	–	–	–	–	–	–	–	–	–	>64	>64	16 (≈ 19.3 µM)	MIC [1]: 64 µg/mL (≈ 77.3 µM); MIC [2, 21]: 16 µg/mL (≈ 19.3 µM); MIC [3]: >64 µg/mL; MIC [4]: >64 µg/mL; MIC [5]: >64 µg/mL; MIC ([6]; E. coli MP-532, clinical-cErmB): >64 µg/mL; MIC [7]: 64 µg/mL (≈ 77.3 µM); MIC ([8]; E. coli MP-9, ATCC25922:tolC): 2 µg/mL (≈ 2.42 µM); MIC (S. aureus ATCC 29213): 0.25 µg/mL (≈ 0.302 µM); MIC (S. aureus MRSA: USA300): 0.25 µg/mL (≈ 0.302 µM); MIC [9]: 0.25 µg/mL (≈ 0.302 µM); MIC (E. coli MP-541 clinical): 16 µg/mL (≈ 19.3 µM); MIC (E. coli ATCC 25922; E. coli ATCC 25922 (MP-4)): 16 µg/mL (≈ 19.3 µM); MIC (K. pneumoniae ATCC 10031; [22]): 8 µg/mL (≈ 9.66 µM)
CC[C@H]1OC(=O)[C@H](C)C(=O)[C@H](C)[C@@H](O[C@@H]2OC(C)CC(N(C)C)C2O)[C@](C)(OC)C[C@@H](C)C(=O)[C@H](C)[C@H]2N(CC#CCn3cc(-c4cccnn4)nn3)C(=O)O[C@]12C (stereo partly drawn) [FSM-130216]	> 64	> 64	16 (≈ 19.8 µM)	64 (≈ 79 µM)	16 (≈ 19.8 µM)	> 64	> 64	> 64	> 64	> 64	4 (≈ 4.94 µM)	0.25 (≈ 0.309 µM)	0.5 (≈ 0.617 µM)	0.25 (≈ 0.309 µM)	64 (≈ 79 µM)	32 (≈ 39.5 µM)	4 (≈ 4.94 µM)	–	–	–	–
CCC1OC(=O)C(C)(F)C(=O)C(C)C(OC2OC(C)CC(N(C)C)C2O)C(C)(OC)CC(C)C(=O)C(C)C2N(CC=C=Cn3cc(-c4ccnc(N)n4)nn3)C(=O)OC12C (stereo not drawn) [FSM-22737]	–	–	–	–	–	–	–	–	–	–	–	–	–	–	–	–	–	>64	>64	16 (≈ 19 µM)	MIC [1]: 32 µg/mL (≈ 38 µM); MIC [2, 21]: 16 µg/mL (≈ 19 µM); MIC [3]: >64 µg/mL; MIC [4]: >64 µg/mL; MIC [5]: 64 µg/mL (≈ 75.9 µM); MIC ([6]; E. coli MP-532, clinical-cErmB): >64 µg/mL; MIC [7]: >64 µg/mL; MIC ([8]; E. coli MP-9, ATCC25922:tolC): 2 µg/mL (≈ 2.37 µM); MIC (S. aureus ATCC 29213): 0.25 µg/mL (≈ 0.297 µM); MIC (S. aureus MRSA: USA300): 0.25 µg/mL (≈ 0.297 µM); MIC [9]: 0.25 µg/mL (≈ 0.297 µM); MIC (E. coli MP-541 clinical): 16 µg/mL (≈ 19 µM); MIC (E. coli ATCC 25922; E. coli ATCC 25922 (MP-4)): 16 µg/mL (≈ 19 µM); MIC (K. pneumoniae ATCC 10031; [22]): 8 µg/mL (≈ 9.49 µM)
CC[C@H]1OC(=O)[C@@](C)(F)C(=O)[C@H](C)[C@@H](O[C@@H]2OC(C)CC(N(C)C)C2O)[C@](C)(OC)C[C@@H](C)C(=O)[C@H](C)[C@H]2N(CC#CCn3cc(-c4nccc(N)n4)nn3)C(=O)O[C@]12C (stereo partly drawn) [FSM-22749]	> 64	> 64	32 (≈ 38 µM)	> 64	16 (≈ 19 µM)	> 64	> 64	> 64	> 64	> 64	8 (≈ 9.49 µM)	2 (≈ 2.37 µM)	2 (≈ 2.37 µM)	2 (≈ 2.37 µM)	64 (≈ 75.9 µM)	64 (≈ 75.9 µM)	16 (≈ 19 µM)	–	–	–	–
CC[C@H]1OC(=O)[C@@](C)(F)C(=O)[C@H](C)[C@@H](O[C@@H]2OC(C)CC(N(C)C)C2O)[C@](C)(OC)C[C@@H](C)C(=O)[C@H](C)[C@H]2N(CC#CCn3cc(-c4cc(N)ncn4)nn3)C(=O)O[C@]12C (stereo partly drawn) [FSM-22745]	> 64	> 64	32 (≈ 38 µM)	64 (≈ 75.9 µM)	16 (≈ 19 µM)	> 64	> 64	> 64	> 64	> 64	4 (≈ 4.75 µM)	0.5 (≈ 0.593 µM)	1 (≈ 1.19 µM)	1 (≈ 1.19 µM)	32 (≈ 38 µM)	32 (≈ 38 µM)	8 (≈ 9.49 µM)	–	–	–	–
